Source: patent US10799593B2, “Nanodiamond particle complexes” (priority 2008, dated 2020)
Values belong to the compound of their own block, whether it stands above or below them.

What was measured:
[1] = Particle size and zeta potential measurement (DLS) of ND-drug complexes; format: physicochemical; details: for average particle size upon complexing with NDs: ND 1 mg/mL, therapeutic 0.1 mg/mL
Experimental: The particle size and zeta potential of the complexes were measured using a Zetasizer Nano (Malvern Instruments). […] ND:Purvalanol A complexes were prepared in a similar manner in 5% aqueous DMSO as described previously. […] All size measurements were performed at 25° C. at a 90° scattering angle. Mean hydrodynamic diameters were obtained via cumulative analysis of 11 measurements.

[2] = ND pulldown with UV-Vis spectrophotometric analysis of drug adsorption; format: physicochemical; details: 14,000 rpm, 2 hours, 25° C.
Experimental: All samples underwent centrifugation at 14,000 rpm for 2 hours at 25° C., where the supernatant was then subsequently collected for spectroscopic scans from 200 nm to 600 nm. Drug loading concentrations were determined via ND-complex pull-down experiments which comprised of an initial absorbance reading, then a 2 hour centrifuge of all samples at 25° C. and 14000 RPM followed by a final absorbance reading. The concentration of loaded drug was then calculated by measuring the difference between the initial and final readings.

[3] = Nanodiamond-drug binding assays (UV-vis spectrophotometry, centrifugation); format: physicochemical; details: UV-vis spectrophotometry and centrifugation (14000 rpm) pelleting
Experimental: The binding efficiency of therapeutics such as daunorubicin, idarubicin, and others were analyzed using UV-vis spectrophotometry, as well as centrifugation assays (SEE FIGS. 18-39). In all cases, nanodiamond-drug interactions were capable of comprehensively pelleting the therapeutics (SEE FIGS. 19, 22, 25, 28, 30, 33, 36, and 39), indicating potent adsorption which was further confirmed via spectrophotometric analysis […], […], 1-32, 34-35, and 37-38).

[4] = Desorption of drug from Nanodiamond conjugates in water and PBS; format: physicochemical
[5] = Dispersion in water / turbidity of drug with and without NDs; format: physicochemical; details: DMSO mixtures diluted 20 fold in water to 5% DMSO; 0.1 mg/ml Purvalanol A, 1 mg/ml ND
[6] = system: HepG2 tissue culture cells; assay: DNA fragmentation (laddering) assay; format: cell-based; details: 24 hours, 10:1 ND:Purvalanol A in 5% DMSO in water, 1:10 dilution
Experimental: A 1:10 dilution of 5% DMSO in water, NDs in 5% DMSO in water (1 mg/ml), ND:Purvalanol A in 5% DMSO in water (10:1 ratio—1 mg/ml ND, 0.1 mg/ml Purvalanol A), and Purvalanol A in 5% DMSO in water (0.1 mg/ml) were added to HepG2 tissue culture cells and grown for 24 hours. The cultured cells were lysed in 500 μL lysis buffer (10 mM Tris-HCl, pH 8.0, 10 mM EDTA, 1% Triton X-100). 30-minute incubations at 37° C. followed separate RNase A and proteinase K treatment. Following phenol chloroform extraction, nuclear DNA was isolated in isopropyl alcohol and stored at −80° C. overnight. The samples were then resuspended in DEPC water following a 70% ethanol wash and electrophoresed using a 0.8% agarose gel, and finally stained with ethidium bromide.

[7] = reference [38]; cited from earlier work
Insulin 1 (Ins1) = assay: Quantitative RT-PCR gene expression, Ins1; format: cell-based, murine; details: 3T3-L1 adipocytes; serum-starved 4 hours, 2-hour recovery; (2) 0.1 μM insulin
Experimental: (§1) RT-PCR procedures were conducted as described previously. 3T3-L1 adipocytes were plated in 6-well plates, serum-starved for 4 hours and then recovered in media solutions of DMEM, insulin, approximately 0.1 μM insulin released from ND-insulin by NaOH (pH 10.5), resultant solution from centrifuged ND-insulin in pH-neutral water, ND-insulin treated with NaOH (1 μM total insulin) and NDs with bound insulin (ND-insulin, 1 μM total insulin). Preparations of media solutions containing DMEM, insulin, NDs and NaOH were conducted in a similar fashion to those implemented for the MTT assay. RNA isolation was completed by lysing cells with TRIzol reagent (Invitrogen Corporation, Carlsbad, Calif.) and added to chloroform to obtain genetic material by centrifugation. cDNA synthesis was performed using the iScript Select cDNA Synthesis Kit (Bio-Rad, Hercules, Calif.). PCR expression of the Ins1 and Csf3/G-csf genes (Integrated DNA Technologies, Coralville, Iowa) were quantified by the MyiQ Single Color Real-Time PCR machine (Bio-Rad, Hercules, Calif.) using SYBER Green detection reagents (Quanta Biosciences, Gaithersburg, Md.). The Rpl32 gene (Integrated DNA Technologies) served as the housekeeping gene for normalization of cDNA among samples.

[8] = system: Granulocyte colony-stimulating factor (Csf3/G-csf); assay: Quantitative RT-PCR gene expression, Csf3/G-csf; format: cell-based, murine; details: 3T3-L1 adipocytes; (2) 0.1 μM insulin
Experimental: as §1

[9] = Insulin desorption from NDs in NaOH of varying pH; format: physicochemical; details: 4:1 ratio; NaOH at pH 10.5
Experimental: Determination of insulin adsorption to NDs was performed by protein detection assays before and after centrifugation. Insulin was added to a ND suspension, centrifuged at 14,000 rpm for 2 hours and the resultant solution extracted and quantified. Detection of desorbed insulin was performed by adding alkaline solutions of 1 mM NaOH, adjusted for varying pH, to samples of ND-insulin in suspension. Binding ratios were determined similar to the adsorption test.
The desorption assays were conducted in a similar manner as the adsorption assays. Aqueous solutions of FITC-labeled and standard insulin were added to ND suspensions at 5:1 and 4:1 ratios, respectively. Initial and centrifuged samples were measured, and the amount of insulin desorbed was calculated. […] Separate tests at pH 10.7 show the ND-insulin complex achieving 53.3±1.2% desorption.

[10] = system: RAW 264.7 macrophage cells; assay: MTT cell viability assay after serum starvation; format: cell-based, murine; details: serum-starved 8 hours, 24-hour recovery, 0.1 μM versus 1 μM insulin
Experimental: RAW 264.7 murine macrophages were plated in 96-well plates, serum-starved for 8 hours and then incubated for 24 hours. Post-starvation media was composed of the following conditions: DMEM, 0.1 μM insulin, 1 μM insulin, DMEM 10% FBS, approximately 0.1 μM insulin released from ND-insulin complex by NaOH at pH 10.5 (insulin present in media), resultant solution from centrifuged ND-insulin in water, ND-insulin treated with NaOH at pH 10.5 (1 μM total insulin, ND-insulin complex present in media) and ND-insulin (1 μM total insulin, ND-insulin complex present in media). Insulin released from NDs was prepared by centrifuging samples of NDs with adsorbed insulin in NaOH and extracting the resultant solution, which could be reconstituted with media to 0.1 μM insulin. In a similar fashion, water was utilized as a neutral solution for relevant desorption analysis. Methylthiazolyldiphenyl-tetrazolium bromide (MTT) solution (Sigma-Aldrich) was added corresponding to 10% of total volume, and then incubated for 3 hours. After formazan crystal formation, the media was removed and MTT solvent, 0.1N HCl in anhydrous isopropanol (Sigma-Aldrich), was added to samples to solubilize the MTT dye. Sample absorbance measurements occurred at 570 nm, accounting for background at a wavelength of 690 nm.

[11] = 5-day insulin desorption test; format: physicochemical; details: for cumulative insulin released from NDs by day 1: of total adsorbed insulin, 4:1 ratio
Experimental: Additionally, a 5-day desorption test was conducted to determine cumulative insulin release. Samples were prepared by combining NDs and insulin (4:1 ratio), centrifuging at 14,000 rpm for 2 hours and extracting the remaining solution to remove any non-adsorbed insulin. Subsequently, a 1 mM NaOH solution adjusted to pH 10.5 was added to the samples, mixed thoroughly and centrifuged after a 24-hour period to determine protein concentration utilizing a BCA assay. In addition to alkaline-mediated release, water was added to a separate set of samples. The samples were replenished with NaOH or water after each measurement for the respective conditions, and the process was repeated every 24 hours over the course of 5 days.

[12] = DLS analysis of NDs, insulin and ND-insulin (size, PDI, zeta potential); format: physicochemical; details: for Average Size (μm): DLS hydrodynamic cluster size
Experimental: Hydrodynamic size and zeta potential of samples was measured with a Zetasizer Nano (Malvern Instruments, Worcestershire, United Kingdom). NDs and insulin were prepared as previously described. Briefly, the particles were suspended in buffer with corresponding pH at a concentration of 50 mg/mL. The size measurements were performed at 25° C. and at a 173° scattering angle. The mean hydrodynamic diameter was determined by cumulative analysis. The zeta potential determinations were based on electrophoretic mobility of the microparticles in the aqueous medium, which was performed using folded capillary cells in automatic mode.

average particle size upon complexing with NDs [1]: 278.9 nm
mean diameter (particle size) ([1]; in 5% DMSO, not complexed): 485.1 nm
Compound: 4-hydroxytamoxifen [4-OHT]
UV-Vis absorbance of supernatant before and after centrifugation (pulldown) [2]: insignificant change in the UV-Vis absorbance

binding / adsorption between ND surface and therapeutic [3]: exceptional binding
Compound: COc1cccc2c1C(=O)c1c(O)c3c(c(O)c1C2=O)C[C@@](O)(C(=O)CO)C[C@@H]3O[C@H]1C[C@H](N)[C@@H](O)[C@H](C)O1 [EPI, epirubicin]
release profile of drug desorbed from Nanodiamond conjugates [4]: drug elution is sustained over several hours

binding / adsorption between ND surface and therapeutic [3]: exceptional binding
Compound: CC(=O)[C@]1(O)Cc2c(O)c3c(c(O)c2[C@@H](O[C@H]2C[C@H](N)[C@H](O)[C@H](C)O2)C1)C(=O)c1ccccc1C3=O [IDA, idarubicin]
release profile of drug desorbed from Nanodiamond conjugates [4]: drug elution is sustained over several hours

average particle size upon complexing with NDs [1]: 556 nm
Compound: CC(C)[C@H](CO)Nc1nc(Nc2cccc(Cl)c2)c2ncn(C(C)C)c2n1 [Purvalanol A]
turbidity after dilution in water [5]: precipitated out of solution, producing a turbid liquid
DNA fragmentation [6]: Fragmentation was evident

The remaining lines, values behind:

Compound: COc1cccc2c1C(=O)c1c(O)c3c(c(O)c1C2=O)C[C@@](O)(C(C)=O)C[C@@H]3O[C@H]1C[C@H](N)[C@H](O)[C@H](C)O1 [DAUN, daunorubicin]
binding / adsorption between ND surface and therapeutic [3]: exceptional binding
release profile of drug desorbed from Nanodiamond conjugates [4]: drug elution is sustained over several hours

Compound: insulin: bovine insulin (Sigma-Aldrich)
isoelectric point [7]: approximately 5.6
relative expression of Ins1 (Insulin 1 (Ins1)): lowest expression of Ins1
relative expression of Csf3/G-csf [8]: comparably higher than that of Ins1
desorption (release) of standard insulin from NDs [9]: 31.3±1.6%
relative viability [10]: increased viability at higher insulin concentrations
amount of insulin released with NaOH relative to water ([11]; 5 days): more than 20 times
total insulin eluted from NDs by day 5 ([11]; NaOH (pH 10.5)): 45.8±3.8 wt %
cumulative insulin released from NDs by day 1 ([11]; NaOH (pH 10.5)): 32.7±1.9 wt %
total insulin eluted from NDs by day 5 ([11]; water): 2.2±1.2 wt %
cumulative insulin released from NDs by day 1 ([11]; water): 0.2±0.1 wt %
zeta potential at pH 10.5 compared with pH 7 [12]: substantially more negative
zeta potential ([12]; at both pH 7 and 10.5): negative values
PDI ([12]; pH 7): 0.97 ± 0.046
Average Size (μm) ([12]; pH 7): 1.59 ± 0.038 μm
PDI ([12]; pH 10.5): 0.99 ± 0.011
Average Size (μm) ([12]; pH 10.5): 2.28 ± 0.66 μm
